Legend:
Type in all cases: cell-based
[1] = biological target: T1, endogenous MISRII (Mus musculus, UniProt Q8K592); test: BRE-luciferase reporter assay in MOVCAR7 cells expressing endogenous MISRII
T1 construct: a mouse ovarian cancer cell line, MOVCAR7, that expresses endogenous MISRII; endogenous in cells; host or cells: MOVCAR7 (mouse ovarian cancer cell line)
T1 sequence (Q8K592 16-568): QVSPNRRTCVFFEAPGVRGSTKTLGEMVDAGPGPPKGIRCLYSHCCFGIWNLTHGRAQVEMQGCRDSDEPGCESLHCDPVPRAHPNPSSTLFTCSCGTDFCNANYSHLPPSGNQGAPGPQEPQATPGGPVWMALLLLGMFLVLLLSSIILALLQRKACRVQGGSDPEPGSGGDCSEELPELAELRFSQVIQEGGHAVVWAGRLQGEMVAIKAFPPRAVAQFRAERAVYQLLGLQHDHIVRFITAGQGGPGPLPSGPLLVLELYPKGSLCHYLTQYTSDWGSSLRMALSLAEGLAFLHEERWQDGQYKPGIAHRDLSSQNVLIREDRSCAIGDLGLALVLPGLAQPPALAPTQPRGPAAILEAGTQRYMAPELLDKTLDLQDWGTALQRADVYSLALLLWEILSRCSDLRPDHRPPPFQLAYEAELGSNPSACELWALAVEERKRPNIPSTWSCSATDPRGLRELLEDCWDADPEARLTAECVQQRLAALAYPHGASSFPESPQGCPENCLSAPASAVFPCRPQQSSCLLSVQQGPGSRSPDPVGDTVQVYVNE

[2] = tested on: type II receptor for activin; test: CAGA-promoter luciferase reporter in COS7 cells co-transfected with activin type II receptor; settings: alone or in combination with the receptor-ligand, COS7 (data not shown)
[3] = biological target: T2, type II receptor for TGFβ (Homo sapiens, UniProt P37173); test: CAGA-promoter luciferase reporter in COS7 cells co-transfected with TGFβ type II receptor; settings: alone or in combination with the receptor-ligand, COS7 (data not shown)
T2 construct: expressed in transfected cells; host or cells: COS7
T2 sequence (P37173 23-567): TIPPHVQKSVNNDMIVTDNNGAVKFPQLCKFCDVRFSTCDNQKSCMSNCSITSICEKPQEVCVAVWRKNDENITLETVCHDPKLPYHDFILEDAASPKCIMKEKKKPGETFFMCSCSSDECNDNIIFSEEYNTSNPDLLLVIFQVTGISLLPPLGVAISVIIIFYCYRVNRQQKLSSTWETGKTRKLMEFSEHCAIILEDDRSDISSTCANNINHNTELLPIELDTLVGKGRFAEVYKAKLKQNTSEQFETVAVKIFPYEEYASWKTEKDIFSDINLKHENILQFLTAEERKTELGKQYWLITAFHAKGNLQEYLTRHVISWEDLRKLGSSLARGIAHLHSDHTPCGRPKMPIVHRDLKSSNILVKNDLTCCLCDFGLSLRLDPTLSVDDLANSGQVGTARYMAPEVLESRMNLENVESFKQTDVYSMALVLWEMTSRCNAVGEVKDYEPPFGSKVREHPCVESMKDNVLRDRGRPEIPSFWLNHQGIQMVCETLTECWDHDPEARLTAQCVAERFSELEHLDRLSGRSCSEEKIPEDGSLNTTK

[4] = tested on: MOVCAR7 cells; test: MTT proliferation assay, MOVCAR7 cells; settings: Mus musculus, 168 h; MOVCAR cells, 7 days, MTT; read-out: IC50, inhibition of cell proliferation
Method: Cells were plated in 96-well plates and treated the day after. Seven days after plating the cell survival was measured using 3-(4,5-dimethylthiazol-2-yl)-2,5-diphenyltetrazolium bromide substrate and measuring the absorbance at 550 nm.
(Connolly, 2003). The 4306 cells were provided by Dr. Daniela Dinulescu, Brigham and Women's (Boston) (30). Cells were plated at a density of 1000 cells/well in 96-well plates and treated 24 h later. The cell proliferation was measured after 7 days by registering the absorbance at 550 nm. Paclitaxel was manufactured by Ivax Pharmaceuticals and obtained from the MGH pharmacy.
The cells were treated for 7 days and the proliferation was measured by spectrophotometry. To exclude cytotoxic effects on the cells unrelated to MIS signal transduction, we used untransfected COS7 cells as a negative control. […] Paclitaxel is used in treatment of a wide range of tumors, but the side effects can be debilitating (Pieretti-Vanmarcke, 2006a, Pieretti-Vanmarcke, 2006b).

[5] = tested on: COS7 cells; test: Renilla luciferase (phRL-CMV) control expression in transfected COS7 cells; settings: 33.3 uM and 100 uM SP600125, COS7
Description: COS7 cells were transiently transfected with MISRH, BRE-Luciferase and phRL-CMV. […] Control cells were transfected with a control plasmid (EGFP-N1 plasmid) instead of the receptor plasmid to keep the total DNA transfected constant. The results shown are the fold-induction over vehicle treated cells and normalized to phRL-CMV expression to correct for variations in cell number and transfection efficiency. […] The results represent the mean values from three independent experiments performed in triplicates (Error bars represent SEM, *p<0.05, **p<0.001).
COS7 cells were plated at a density of 5000 cells/well in 96-well plates for secondary screens. The day after plating cells were transfected with rat MISRII receptor or EGFP-N1 (Clontech, Mountain View Calif.) together with BRE firefly luciferase reporter construct and phRL-CMV using TransIT-LT1 transfection reagent (Mirus Bio Corporation, Madison Wis.). […] Results were obtained using the Dual Luciferase reporter assay according to the manufacturer's instructions (Promega). Plates were read in a Wallac Victor2 luminometer (PerkinElmer, Wellesley Mass.).

[6] = biological target: T3, BMP type II receptor (BMPRII) (Homo sapiens, UniProt Q13873); test: BRE-luciferase reporter assay in COS7 cells transfected with BMP type II receptor; settings: cotreatment with BMP2 and 10 μM SP600125, BMPRII-transfected COS7
T3 construct: expressed in transfected cells; host or cells: COS7
T3 sequence (Q13873 27-1038): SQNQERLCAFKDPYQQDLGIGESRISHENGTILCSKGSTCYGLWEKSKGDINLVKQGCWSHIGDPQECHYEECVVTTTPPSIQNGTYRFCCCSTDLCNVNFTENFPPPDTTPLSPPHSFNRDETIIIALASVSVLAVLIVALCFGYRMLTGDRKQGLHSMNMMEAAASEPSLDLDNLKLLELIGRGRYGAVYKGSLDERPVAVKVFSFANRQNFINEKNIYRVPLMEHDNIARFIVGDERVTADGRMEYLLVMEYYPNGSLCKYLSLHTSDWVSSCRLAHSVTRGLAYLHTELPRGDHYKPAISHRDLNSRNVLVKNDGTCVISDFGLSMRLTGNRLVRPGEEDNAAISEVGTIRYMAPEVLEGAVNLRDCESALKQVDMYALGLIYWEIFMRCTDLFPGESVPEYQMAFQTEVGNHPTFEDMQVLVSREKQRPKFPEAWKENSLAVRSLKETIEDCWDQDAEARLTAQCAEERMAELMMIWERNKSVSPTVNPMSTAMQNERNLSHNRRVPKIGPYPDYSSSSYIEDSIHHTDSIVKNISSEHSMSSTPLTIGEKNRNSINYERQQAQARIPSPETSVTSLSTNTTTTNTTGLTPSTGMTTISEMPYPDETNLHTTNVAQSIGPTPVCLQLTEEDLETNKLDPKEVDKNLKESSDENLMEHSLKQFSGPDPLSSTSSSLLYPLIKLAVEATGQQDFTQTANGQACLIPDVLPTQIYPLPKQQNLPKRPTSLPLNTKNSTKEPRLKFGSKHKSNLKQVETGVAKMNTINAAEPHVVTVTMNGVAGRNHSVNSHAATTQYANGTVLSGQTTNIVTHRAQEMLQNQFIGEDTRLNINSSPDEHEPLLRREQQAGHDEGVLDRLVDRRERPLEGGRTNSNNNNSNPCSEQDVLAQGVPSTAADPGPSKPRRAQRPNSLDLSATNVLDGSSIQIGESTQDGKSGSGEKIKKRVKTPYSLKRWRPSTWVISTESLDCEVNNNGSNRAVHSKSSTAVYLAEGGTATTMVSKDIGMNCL

O=C1c2ccccc2-c2n[nH]c3cccc1c23 [SP600125, anthra[1,9-cd]pyrazol-6(2H)-one]
increase in BRE-luciferase activity compared to untreated control ([1]; 25 μM SP600125, MOVCAR7, 24 h): 5 fold | increase in the BRE-response, combined treatment ([1]; MIS 5 μg/ml and SP600125 25 μM combined, MOVCAR7, 24 h): 16 fold | effect on CAGA-luciferase reporter [2]: did not have any significant effect | effect on CAGA-luciferase reporter [3]: did not have any significant effect | IC50 [4]: 4.5 µM | inhibition of Renilla luciferase (suggesting toxic effects to the cells) [5]: approximately 60% | decrease of luciferase activity compared to BMP2 alone [6]: 25%

Reference: patent US9260759B2, “Pyrazoloanthrone and derivatives thereof for the treatment of cancers expressing MISRII” (The General Hospital Corporation, priority 2007, dated 2016)
